Results reported in article PMC2658647 (Annals of neurology, 2009).

Columns and labels:
iNOS = iNOS (Mus musculus, UniProt P29477); experiment: NOS inhibition, hemoglobin capture assay; format: biochemical; conditions: read-out: Ki iNOS; apparent Ki; recombinant enzyme; 10 µM L-arginine
blood pressure = conditions: cited from earlier work

| SMILES | Ki (iNOS) [µM] | effect on blood pressure (blood pressure) |
| --- | --- | --- |
| N=C(NCCC[C@H](N)C(=O)O)N[N+](=O)[O-] [L-NNA, L-N^ω-Nitroarginine] | 4.55 | – |
| COC(=O)[C@@H](N)CCCNC(=N)N[N+](=O)[O-] [L-N^ω-nitroarginine methyl ester] | – | sharp increases in blood pressure |
